Test results taken from US20250177481A1, “SCO-spondin-derived polypeptides for enhancing synaptic transmission” (AXOLTIS PHARMA, priority 2021, published 2025).
Several values for one entry are separate records, joined by “and”; a condition that tells them apart may be missing. Identical values can stand only once. Positions of bridges follow the written chain, without caps; N, C: chain ends. No end group written: not given here.

How the values were obtained:
[1] = test system: Schaffer collateral-CA1 synaptic transmission in mouse hippocampal slices after OGD; assay: fEPSP recovery after OGD in hippocampal slices, treatment from the end of OGD or during recovery plateau (Example 8); assay type: cell-based, C57Bl6/J mice; conditions: for averaged normalized f-EPSP slope: NX218 250 μg/mL from the end of OGD, n=10 slices
Protocol: Two extra slices were also be recorded to evaluate a possible curative capacity of NX218 against hypoxia.
Animals: see Example 7. In total, 10 mice were used in this study. An additional mouse was used to obtain two extra slices for preliminary recordings (“test slices)”.
Mice brain slice preparation: see Example 7
Conditions of Example 7 are used, except:
Measurements of evoked field excitatory postsynaptic potential (fEPSP) recovery after OGD were continued for 120 min from TO (OGD initiation). Two “test slices” were also done according to the experimental design described above.
Oxygen-glucose deprivation: see Example 7. In this study, the mean OGD duration was 10.6±1.0 min. Data processing and statistical analysis: see Example 7.

[2] = test system: Schaffer collateral-CA1 synaptic transmission in mouse hippocampal slices after OGD; assay: fEPSP recovery after oxygen-glucose deprivation (OGD) in hippocampal slices, treatment during OGD (Example 7); assay type: cell-based, C57Bl6/J mice; conditions: NX218 250 μg/mL during OGD, n=9 slices
Protocol: Acute episodes of hypoxia may cause a depression in synaptic activity in many brain regions. […] To meet this goal, functional recovery was assessed by recording evoked field excitatory postsynaptic potentials (fEPSPs) in mouse hippocampal neurons, before and after oxygen-glucose deprivation (OGD).
Experiments were carried out with 4-5 weeks old male C57Bl6/J mice (approximately 20 grams) obtained from Charles River, France. In total, 9 mice were used in this study. Two slices were recorded from each mouse (one for the control condition and another for the NX218 condition). Animals were acclimated to laboratory housing conditions for 13 days prior to experimental use. Standard Food (Type a04, SAFE, France) was available ad libitum. Filtered mains drinking water ([…]) was available ad libitum.
Sagittal hippocampal brain slices were obtained using standard brain slicing methods (approximately 6 slices per mouse) (Knobloch et al. 2007). Mice were anesthetized with 5% isoflurane and then decapitated. Brain was dissected out of the cranium and immediately immersed in ice-cold freshly prepared artificial cerebrospinal fluid (aCSF) containing: 124 mM NaCl, 3.75 mM KCl, 2 mM MgSO4, 2 mM CaCl2, 26.5 mM NaHCO3, 1.25 mM NaH2PO4, 10 mM glucose, continuously oxygenated (95% O2, 5% CO2) (pH=7.4) for a total duration of 3-4 minutes. Acute slices (350 μm thick) were prepared using a vibratome (VT 1000S; Leica Microsystems, Bannockburn, IL). […]
For electrophysiological recordings, a single slice was placed in the recording chamber (room temperature), submerged and continuously superfused with gassed aCSF (95% O2, 5% CO2; pH=7.4) at a constant rate (2 mL min^−1) for the reminder of the experiment. Extracellular field excitatory postsynaptic potentials (fEPSPs) were recorded in the CA1 stratum radiatum using a glass micropipette filled with aCSF. fEPSPs were evoked by the electrical stimulation of Schaffer collateral-commissural pathway at 0.1 Hz (i.e., a single pulse every 10 s) with a glass stimulating electrode (borosilicate capillary glass with filament, standard wall; OD: 1.5 mm; ID: 0.86 mm; Length: 75 mm; ref: W3 30-0060 from Harvard Apparatus) placed in the stratum radiatum.
At the beginning of each experiment (when a stable fEPSP response was reached), Input/Output (I/O) curves were obtained by gradual increases in stimulus intensity (from 0 to 100 μA, 10 μA intervals) to determine the intensity of stimulation that was kept for the reminder of the experiment. Stable baseline fEPSPs was then recorded during 10 minutes by stimulating at 80% of maximal field amplitude (single pulse every 10 s, i.e., 0.1 Hz). […]

W-S-G-W-S-S-C-S-R-S-C-G [NX218] (WSGWSSCSRSCG; disulfide 7-11 (inferred))
averaged normalized f-EPSP slope ([1]; 0-30 min after start of OGD, vehicle 28.497): 25.758 % of baseline | averaged normalized f-EPSP slope ([1]; 30-60 min after start of OGD, vehicle 53.456): 52.556 % of baseline | averaged normalized f-EPSP slope ([1]; 60-90 min after start of OGD, vehicle 68.774): 74.616 % of baseline | averaged normalized f-EPSP slope ([1]; 90-120 min after start of OGD, vehicle 77.110): 88.0±1.9 % of baseline and 88.046 % of baseline | shape of the f-EPSP recovery phase following OGD (curative effect) ([1]; NX218 250 μg/mL applied during recovery plateau, T=60 min or T=70 min after OGD initiation, preliminary, n=1 per timepoint): rising further toward baseline | averaged normalized f-EPSP slope ([1]; last 10 min (of 120 min) after start of OGD, vehicle 79.319): 90.3±2.7 % of baseline and 90.340 % of baseline | averaged normalized f-EPSP slope ([2]; 0-30 min after start of OGD, vehicle 31.618): 31.043 % of baseline | averaged normalized f-EPSP slope ([2]; 30-60 min after start of OGD, vehicle 47.152): 61.7±5.0 % of baseline and 61.663 % of baseline | averaged normalized f-EPSP slope ([2]; 60-90 min after start of OGD, vehicle 69.598): 88.0±2.6 % of baseline and 87.959 % of baseline | averaged normalized f-EPSP slope ([2]; last 10 min (of 90 min) after start of OGD, vehicle 72.432): 92.6±2.4 % of baseline and 92.639 % of baseline
